Reference: PubChem BioAssay (NCI)
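Step 1: Grow cells in 96-well plates. Step 2: Expose to compound for 48 hours at 5 concentrations. Step 3: Interpolate endpoints linearly; if unreached, use highest concentration. TGI denotes the concentration required for complete inhibition of growth.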

How the values were obtained:
Experiment in all cases: NCI anticancer screen, dose series, 48 h
HOP-92 NSCLC = test system: HOP-92 NSCLC
CAKI-1 renal = test system: CAKI-1 renal
SK-MEL-2 melanoma = test system: SK-MEL-2 melanoma
UACC-257 melanoma = test system: UACC-257 melanoma
OVCAR-8 ovarian = test system: OVCAR-8 ovarian
NCI-H226 lung = test system: NCI-H226 lung
K-562 leukemia = test system: K-562 leukemia
SK-MEL-5 melanoma = test system: SK-MEL-5 melanoma
SF-539 CNS = test system: SF-539 CNS
OVCAR-5 ovarian = test system: OVCAR-5 ovarian
M14 melanoma = test system: M14 melanoma
MDA-MB-231 breast = test system: MDA-MB-231 breast
SF-268 CNS = test system: SF-268 CNS
NCI-H23 lung = test system: NCI-H23 lung
HOP-62 NSCLC = test system: HOP-62 NSCLC
MOLT-4 leukemia = test system: MOLT-4 leukemia
TK-10 renal = test system: TK-10 renal
MDA-MB-435 = test system: MDA-MB-435
HS 578T breast = test system: HS 578T breast
A498 renal = test system: A498 renal

SMILES	TGI (HOP-92 NSCLC) [µM]	TGI (CAKI-1 renal) [µM]	TGI (SK-MEL-2 melanoma) [µM]	TGI (UACC-257 melanoma) [µM]	TGI (OVCAR-8 ovarian) [µM]	TGI (NCI-H226 lung) [µM]	TGI (K-562 leukemia) [µM]	TGI (SK-MEL-5 melanoma) [µM]	TGI (SF-539 CNS) [µM]	TGI (OVCAR-5 ovarian) [µM]	TGI (M14 melanoma) [µM]	TGI (MDA-MB-231 breast) [µM]	TGI (SF-268 CNS) [µM]	TGI (NCI-H23 lung) [µM]	TGI (HOP-62 NSCLC) [µM]	TGI (MOLT-4 leukemia) [µM]	TGI (TK-10 renal) [µM]	TGI (MDA-MB-435) [µM]	TGI (HS 578T breast) [µM]	TGI (A498 renal) [µM]
O=C(NC1CCC(=O)N1C(=O)OCc1ccccc1)OCc1ccccc1 (stereo not drawn)	> 100	> 100	> 100	> 100	> 100	> 100	> 100	> 100	> 100	> 100	> 100	> 100	> 100	> 100	> 100	> 100	> 100	> 100	> 100	
C=CC1ON(C)CCc2cc(OC)c(OC)cc21 (stereo not drawn)	> 100	> 100		> 100	> 100	> 100	> 100	> 100	> 100	> 100	> 100	> 100	> 100	> 100	> 100	> 100	> 100	> 100	> 100	> 100
COc1ccccc1C(C1=C(O)COC1=O)c1cc2c(cc1OC(C)=O)OCO2 (stereo not drawn)		> 100		> 100	> 100	> 100	> 100	> 100	> 100	> 100	> 100	> 100	> 100	> 100	> 100	> 100	> 100	> 100	> 100	> 100
CCOC(=O)c1nc2ccccc2nc1NCc1ccc(OC)cc1	> 100	> 100		> 100	> 100	> 100	> 100	> 100	> 100	> 100		> 100	> 100	> 100	> 100	> 100	> 100	> 100	> 100	> 100
CC(C)(C)[Si](C)(C)OCCCCC1CC2(S(=O)(=O)C3=CC=C=C=C3)ON1CC2S(=O)(=O)c1ccccc1 (stereo not drawn)	> 100		> 100	> 100	> 100	> 100	> 100	> 100	> 100	> 100	> 100	> 100	> 100	> 100	> 100	> 100	> 100	> 100	> 100	> 100
CCOC(=O)c1sc2nc(SC)nc3c2c1N=CN3c1ccccc1Cl	74.5	89.1	> 100	> 100	> 100	> 100	> 100	> 100		> 100	> 100	> 100	> 100	> 100	32.6	> 100	> 100	> 100	52.3	56.3
Cc1cc2c(c(C=Nc3ccc([N+](=O)[O-])cc3)c1)OC1(C=C2)Oc2ccccc2C(=O)N1C (stereo not drawn)	50.9	48.4	57.9	42.4	36.9	46	91.5	> 100		82.5	57.8	45	51.2	35.7	82.9	35	74.2	> 100	> 100	61.6
OC(c1cccnc1)C(F)(F)c1nc2ccccc2o1 (stereo not drawn)	> 100	> 100	> 100	> 100	> 100	> 100	> 100	> 100	> 100			> 100	> 100	> 100	> 100	> 100	> 100	> 100	> 100	> 100
CCOP(=O)(OCC)C1CC(O)CN1OC(=O)C(C)(C)C (stereo not drawn)			> 100	> 100	> 100	> 100	> 100	> 100		> 100	> 100	> 100	> 100	> 100	> 100	> 100	> 100	> 100	> 100	> 100
Cc1ccc(OCC2OC(C#N)C(Oc3ccc(C)cc3)C2Oc2ccc(C)cc2)cc1 (stereo not drawn)		> 100	> 100		> 100	> 100	> 100	> 100	> 100	> 100	> 100	> 100	> 100	> 100	> 100	> 100		> 100	> 100	> 100
COC1O[C@@H]2CCN3C(=O)[C@@H](OC(=O)c4ccc([N+](=O)[O-])cc4)[C@H]1C23 (stereo partly drawn)	> 100	> 100		> 100	> 100	> 100	> 100	> 100	> 100	> 100	> 100	> 100	> 100	> 100	> 100	> 100	> 100	> 100	> 100	> 100
Cc1cc2c(cc1Cl)SC(N/N=C(\N)c1ccc(Cl)cc1)=NS2(=O)=O	58.9	> 100		> 100	> 100	> 100	> 100	> 100	84.2	> 100	> 100	> 100	> 100	> 100	> 100	> 100	> 100	> 100	> 100	72.9
CN(C)CCn1c(=O)c2ccc3c4c(nn3CCN(C)C)c3cc(N)ccc3n(c1=O)c24		1.47	0.089	0.433	0.454	0.759	16.7	0.237	0.579	0.111	0.18	0.195	0.221	0.021	0.201	> 100	3.8	0.0654	1.03	0.364
COC(=O)CCC(NC(=O)C(C)NC(=O)COC1C(O)C(OC(=O)CCNc2c3ccccc3nc3cccc([N+](=O)[O-])c23)OC(OCc2ccccc2)C1NC(C)=O)C(N)=O (stereo not drawn)	> 10		5.57	> 10	> 10	> 10	> 10	> 10	> 10	> 10	> 10	> 10	> 10	> 10	> 10	> 10	> 10	> 10	> 10	> 10
CC1(C)CC[C@]2(C(=O)O)CC[C@]3(C)C(=CC[C@@H]4[C@@]5(C)C[C@H](O)[C@H](O)[C@@](C)(CO)C5=CC[C@]43C)[C@@H]2C1	> 100	> 100	> 100	> 100	> 100		> 100	> 100	> 100	> 100	> 100	> 100	> 100	> 100	> 100	> 100	> 100	> 100	> 100	> 100
Oc1c2cc(Br)cc1CCc1cc(Br)cc(c1O)CC2		> 100	52.9	55.6	> 100	59.5	> 100	33.3	58.6	65	36.7	41.4	> 100	> 100	65.7	> 100	89.9	> 100	73.4	73.8
CC1=NN(C(=O)CC(=O)Nc2ccccc2Cl)C(=O)C1N=Nc1ccc(C(=O)O)cc1 (stereo not drawn)	> 100	> 100	> 100	> 100	> 100		> 100	> 100	> 100	> 100	> 100	> 100	> 100	> 100	> 100	> 100	> 100	> 100	> 100	> 100
N#CC1=C(S)N(C2OC(CO)C(O)C(O)C2O)C(c2ccccc2)=CC1c1ccccc1 (stereo not drawn)	> 100	> 100		> 100	> 100	> 100	> 100	43.6	> 100	> 100	> 100	> 100	> 100	> 100	> 100	86.8	> 100	> 100	> 100	> 100
O=C1c2cccnc2S(=O)N1Cc1ccccc1 (stereo not drawn)	> 100	> 100		> 100	> 100	> 100	> 100	> 100	> 100	> 100	> 100	> 100	> 100	> 100		> 100	> 100	> 100	> 100	> 100
